Assay results from PubChem BioAssay AID1996.
Values after ≈ are worked out from the molar mass of the structure shown.

Details: buffer; pH 7.4; 200.0 µM

SMILES | solubility kinetic [µg/mL]
O=C(COc1ccc(F)cc1Br)NCC1COc2ccccc2O1 (stereo not given) | 17.5 (≈ 44.2 µM)
CCn1c(=O)c2sccc2n(Cc2cccc(C)c2)c1=O | 9 (≈ 30 µM)
CNC(=O)Nc1cccc(-c2cc(-c3c(Cl)cccc3Cl)no2)c1 | < 0.3
CS(=O)(=O)N1CCn2c1nc1ccccc12 | > 35.6
CCCn1c(C)cc(C=O)c1C | 16.3 (≈ 98.6 µM)
Clc1ccc(C(CCN2CCCC2)Cc2ccccc2)cc1 (stereo not given) | 29.8 (≈ 94.9 µM)
Cc1ccc(-c2nc(C#N)c(N3CCC(C)CC3)o2)cc1 | < 0.2
O=C(NCc1ccccc1F)C1CCCN1C(=O)Nc1ccccc1 (stereo not given) | > 51.2
CCOC(=O)CNC(=O)Cc1ccc(OC)cc1 | > 37.7
CSc1nnc(C)c(=O)n1COC(=O)c1ccccc1 | > 43.7
O=[N+]([O-])c1ccc(Sc2ncc3ccccn23)nc1 | 20.6 (≈ 75.7 µM)
COc1ccc(NC(=O)C2CC(c3ccccc3O)=NO2)cc1OC (stereo not given) | 1.5 (≈ 4.38 µM)
O=c1sc(Nc2ccccc2)nc2ccccc12 | 6.5 (≈ 25.6 µM)
O=C(O)CCC(=O)N1CCN(c2ncccc2C(F)(F)F)CC1 | 44.5 (≈ 134 µM)
O=C(CCCc1cccs1)Nc1ccc2c(c1)OCO2 | 39.2 (≈ 135 µM)
CSc1ncc2c(=O)[nH]c(-c3ccccc3)nc2n1 | > 40.5
CCOC(=O)CN1C(=O)C(=O)N(Cc2cccc(C)c2)C1=O | > 45.6
CC1CN(C)C(C)CC1OC(=O)C(c1ccccc1)c1ccccc1 (stereo not given) | 42.1 (≈ 125 µM)
CC(C)Cn1c(N)c(C(=O)COC(=O)c2ccc(Br)cc2)c(=O)n(C)c1=O | 8.8 (≈ 20.1 µM)
CN(Cc1ccc(N(C)C)cc1)C(=O)c1cc2ccccc2o1 | 31.5 (≈ 102 µM)
CCOCCCNCc1cc(Cl)cc(Cl)c1OCC.Cl | 44
O=C(Cc1c(Cl)cccc1Cl)OCC(=O)N1CCOCC1 | > 49.8
CC(=O)c1c(C)[nH]c(C(=O)Nc2cccc(C#N)c2)c1C | 10.8 (≈ 38.4 µM)
CCOc1ccccc1NC(=O)/C(C#N)=C/c1cccnc1 | 18.8 (≈ 64.1 µM)

SMILES | solubility kinetic [µg/mL]
COc1ccccc1NC(=O)NCCc1ccccc1 | > 40.5
COc1ccc(NC(=O)Cn2cc(C(=O)C3CC3)c3ccccc32)cc1 | 0.5 (≈ 1.44 µM)
Cc1c(Cl)cnc(NC(=O)COC(=O)CNC(=O)c2ccccc2)c1Cl | 52.3 (≈ 132 µM)
Cc1csc(=O)n1CC(=O)Nc1nc2ccccc2s1 | > 45.8
O=C(CN1CCCc2ccccc21)N1CCc2ccccc21 | 4.8 (≈ 16.4 µM)
O=C(CCN1CCN(CCO)CC1)Nc1ccc(Br)cc1 | > 53.4
COc1cc(/C=C2\SC(N)=NC2=O)ccc1O | 34.5 (≈ 138 µM)
CCc1ccccc1NC(=O)COC(=O)c1c(C)nsc1NC | 1.9 (≈ 5.7 µM)
COc1ccc(CN(C#N)c2nc(C)cc(C)n2)cc1 | 38.5 (≈ 143 µM)
Cl.O=C(NCCN1CCCC1)C(c1ccccc1)c1ccccc1 | 48.9
O=Cc1cnc(N2CCCCC2)s1 | 27.6 (≈ 141 µM)
CCNC(=S)/N=C(/Nc1ccccc1)Nc1nc(C)cc(C)n1 | 0.8 (≈ 2.44 µM)
CCc1ccc(OCC(=O)Oc2ccc([N+](=O)[O-])cc2)cc1 | 29.4 (≈ 97.6 µM)
CSc1nc2c(c(=O)[nH]1)C(c1cccc(Cl)c1)CC(=O)N2 (stereo not given) | 4.6 (≈ 14.3 µM)
CC1CCCC(C)N1C(=O)COC(=O)c1ccc(Br)c(S(=O)(=O)N2CCOCC2)c1 (stereo not given) | 74.2 (≈ 147 µM)
CCCCC(=O)N=c1sc2cc([N+](=O)[O-])ccc2n1C | < 0.2
O=C1/C(=C/c2ccccn2)COc2ccccc21 | 11.3 (≈ 47.6 µM)
CCCCCCCCNC1=CC(=O)CC(C)(C)C1 | 12.5 (≈ 49.7 µM)
CC(=O)NCCC(=O)Nc1nc2c(ccc3ccccc32)s1 | 1.7 (≈ 5.42 µM)
Cc1ccc(NC(=O)NC(=O)CN2CCC(C(N)=O)CC2)c(C)c1 | > 49.9
COc1ccc(NC(=O)/C(=C/c2cccs2)NC(=O)c2ccco2)cc1 | 5 (≈ 13.6 µM)
COC(=O)c1cc(-c2cccc([N+](=O)[O-])c2)c2c(=O)[nH]c(=O)n(C)c2n1 | 1.1 (≈ 3.09 µM)
COC(=O)c1c(SCC(=O)Nc2ccc(C)cc2)nc(=O)[nH]c1C | 8.4 (≈ 24.2 µM)
CC(C)(C)C(=O)/C=C1\NC(=O)CS1 | > 29.9

SMILES | solubility kinetic [µg/mL]
CCCOc1ccccc1/C=C1/C(=O)ON=C1C | 23.3 (≈ 95 µM)
CC(C)CN(CC(C)C)C(=S)Nc1ccc(Cl)cc1 | 2.2 (≈ 7.36 µM)
NS(=O)(=O)c1cccc(NC(=O)CN2CCN(S(=O)(=O)c3ccc4c(c3)OCCO4)CC2)c1 | > 74.5
O=C(c1ccncc1)c1ccc(NC(=O)c2cccs2)cc1 | 45.9 (≈ 149 µM)
Cc1cc(S(=O)(=O)Nc2c(C)nn(C)c2C)c(Cl)cc1Cl | > 52.2
CC(Sc1nc(N)cc(=O)[nH]1)C(=O)Nc1nc2c(s1)CCCC2 (stereo not given) | 8.7 (≈ 24.8 µM)
O=C(c1ccc(F)cc1)N(c1ccccn1)C1CCCCC1 | 42.6 (≈ 143 µM)
COc1ccc(N2CCN(c3cc(C)c4ccccc4n3)CC2)cc1 | < 0.2
N/C(=N\OC(=O)c1cccs1)c1ccc(Cl)cc1 | 3.5 (≈ 12.5 µM)
O=C(NC(=S)Nc1ccc(Cl)c(C(=O)O)c1)c1ccco1 | > 48.7
COc1ccc(-c2ccc3ccccc3n2)cc1 | < 0.5
CCC(C)c1ccc(NC(=S)NC(C)C2CCCO2)cc1 (stereo not given) | 31.2 (≈ 102 µM)
CC(=O)N1CCC2(CC1)NC(=O)N(c1ccccc1)N2 | > 41.1
Cc1c(C(=O)O)c(C(=O)O)nc2ccc(N3CCOCC3)cc12 | > 47.4
Cc1ccnc(N2C(=O)c3ccc([N+](=O)[O-])cc3C2=O)c1 | > 42.5
COc1cccc(NC(=O)C(c2ccccc2)N2CCCC2)c1 (stereo not given) | > 46.6
Cc1noc(NS(=O)(=O)c2ccc(NC(=O)CC(C)C)cc2)c1C | > 52.7
NC(=O)/C(=C\c1cccnc1)NC(=O)c1ccccc1 | > 40.1
Cc1cc2c(NCc3ccccc3)ncnc2s1.Cl | 41.7
N#C/C(=C\C=C\c1ccccc1)C(=O)NCc1ccco1 | 6.3 (≈ 22.6 µM)
C=CC(=O)NC(NC(=O)C=C)c1ccccc1F | > 37.2
O=C(COC(=O)c1cc(S(=O)(=O)N2CCOCC2)ccc1F)Nc1cc([N+](=O)[O-])ccc1F | 7.4 (≈ 15.2 µM)
CCCn1c(=N)n(CC(O)COc2ccc(C)cc2)c2ccccc21.Cl (stereo not given) | > 56.4
O=c1[nH]c(NCCO)nnc1Cc1ccc(Cl)cc1 | > 42.1

SMILES | solubility kinetic [µg/mL]
Cc1ccc(S(=O)(=O)N2CCN(c3ncnc4scc(-c5ccccc5)c34)CC2)cc1 | 0.9 (≈ 2 µM)
COc1ccc(C)cc1NC(=O)CCCN1C(=O)CN(C)C1=O | > 47.9
O=C(OCC(=O)N1CCOCC1)c1cc(=O)[nH]c2ccccc12 | > 47.4
CCSc1ncc(Cl)c(C(=O)Nc2cc(C)ccc2C)n1 | < 0.2
O=C(Nc1nnc(C2CC2)s1)C1COc2ccccc2O1 (stereo not given) | > 45.5
O=C(/C=C/C=C/c1ccccc1)CC1(O)C(=O)Nc2ccccc21 (stereo not given) | > 47.9
N#C/C(=C\c1ccc(O)c([N+](=O)[O-])c1)C(=O)NCc1ccccc1 | 46.2 (≈ 143 µM)
Cc1cc(C(=O)NCC2CCCO2)sc1C (stereo not given) | > 35.9
CCc1ccc(OCC(=O)Nc2ccncc2)c(Br)c1 | 15.5 (≈ 46.2 µM)
CCOc1ccc(NC(=S)N(C)C)cc1 | > 33.6
N#C/C(=C(/O)c1ccc([N+](=O)[O-])cc1)c1nc2ccccc2[nH]1 | < 0.2
CCc1ncc(/C=C2\C(=O)Nc3ccccc32)[nH]1 | 6.7 (≈ 28 µM)
CC1=CC(C)(C)NC(=O)N1c1ccc(C)cc1 | > 34.5
Cc1ccc(NC(=O)CSc2ncccn2)cc1F | > 41.6
Cc1cc(C(=O)NCc2ccc3c(c2)OCO3)c(C)o1 | > 41
O=C(O)CCC(=O)Nc1cc(C(F)(F)F)cc(C(F)(F)F)c1 | 43.6 (≈ 132 µM)
CC(C)Oc1cc(C(=O)NC2CCCCC2)c2ccccc2n1 | 1.4 (≈ 4.48 µM)
O=C(Nc1ccc2cccnc2c1)c1ccc(Br)cc1 | 0.4 (≈ 1.22 µM)
C[C@H](NC(=O)c1ccc(C(C)(C)C)cc1)C(=O)N1CCOCC1 | > 47.8
COC(=O)Cc1nc(NC(=O)c2cccs2)sc1C | > 44.5
COc1cccc(NC(=O)C(C)SCc2ccccc2)c1 (stereo not given) | > 45.2
CC1(C)COC(Cn2c3ccccc3c3ccccc32)O1 (stereo not given) | < 0.6
CC(C)(C)C1CCC(=NOC(=O)c2ccc(F)cc2)CC1 (stereo not given) | 1.3 (≈ 4.46 µM)
Cc1ccc(OCCn2c(=S)[nH]c3ccccc32)c(C(C)C)c1 | < 0.3

SMILES | solubility kinetic [µg/mL]
Cc1nn(C)cc1CN(C)S(=O)(=O)c1cccc([N+](=O)[O-])c1 | > 48.7
COc1cc(/C=C2\SC(N)=NC2=O)cc(Cl)c1O | 9.6 (≈ 33.7 µM)
Cc1oc2c(CN3CCCC(C)C3)c(O)ccc2c(=O)c1-c1ccccc1 (stereo not given) | > 54.5
Cc1cc(NC(=O)c2cccc(Br)c2)no1 | 4.2 (≈ 14.9 µM)
CC1=C(C(N)=O)C(c2cccs2)NC(=S)N1 (stereo not given) | 34.7 (≈ 137 µM)
CS(=O)(=O)N1CCCC(C(=O)c2cccc(Cl)c2)C1 (stereo not given) | > 45.3
COC(=O)c1c(NC(=O)CCC(=O)O)sc(Cc2ccccc2)c1C | 48.7 (≈ 135 µM)
NS(=O)(=O)c1ccc(NC(=O)CSc2nc3ccccc3c(=O)n2Cc2ccncc2)cc1 | 8 (≈ 16.6 µM)
Cc1cc(C(=O)NCCN2CCOCC2)c2ccccc2n1 | > 44.9
Br.O=C(Cn1c(NCCO)nc2ccccc21)c1ccc(F)cc1 | 22.4
Cl.Nc1nc2cc3ccccc3cc2[nH]c1=O | 5.2
Cc1cc(N2CCCC2)nc2ccccc12 | 31.6 (≈ 149 µM)
C/C=C/COC(=O)C1=C(C)NC(=O)NC1c1ccc2c(c1)OCO2 (stereo not given) | 15.5 (≈ 46.9 µM)
Cc1c(Cl)cccc1NC(=O)CSc1nccn1C | > 44.4
CC(C)[C@H](NC(=O)c1ccccc1F)C(=O)OCC(=O)Nc1sccc1C(N)=O | > 63.2
O=S(=O)(NC1CCSc2ccccc21)c1ccccc1 (stereo not given) | 15.6 (≈ 51.1 µM)
Cc1cc(F)c(F)c(C(=O)N2C(C)CCCC2C)c1Cl (stereo not given) | 14.5 (≈ 48.1 µM)
Cc1ccc(C(=O)Nc2sc3c(c2C(=O)O)CCC(C)C3)o1 (stereo not given) | > 47.9
Clc1ccc2c(N3CCOCC3)ccnc2c1 | > 37.3
Cc1ccc(N2CC(C(=O)N3CCCCC3)CC2=O)cc1C (stereo not given) | > 45.1
O=C(NCCN1CCCCC1)c1ccc(/C=N/O)nc1 | 40.7 (≈ 147 µM)
Cc1ccc(-c2csc(N=C(N)N)n2)c(C)c1 | 8 (≈ 32.5 µM)
O=C(Nc1cccc(-c2cn3cccnc3n2)c1)Nc1ccccc1F | 1.7 (≈ 4.89 µM)
CC(C)(C)S(=O)(=O)c1cnc(-c2ccccn2)nc1N | 34.1 (≈ 117 µM)
